The source of these data is PMC12731232, “Microbial Biotransformation of the Sesquiterpene Carotol: Generation of Hydroxylated Metabolites with Potential Cytotoxic and Target-Specific Binding Activities” (Biomolecules, 2025).

Values after ≈ are worked out from the molar mass of the structure shown.

One data set relates to MCF-7 (breast carcinoma). Kind of data set: MTT cell viability assay, MCF-7. The conditions noted are these: Homo sapiens, MCF7, 24 h, read-out: Cytotoxic activity IC50 ± SD. In general terms: Formazan colour is commonly taken as a measure of viable cells.
Experimental: (§1) The assay was conducted at the Regional Center for Mycology and Biotechnology, Al-Azhar University, Cairo, Egypt.
(§2) Cancer and normal cells were seeded into 96-well plates at a density of 5 × 10^4 cells per well and incubated for 24 h prior to treatment. Test compounds, dissolved in 0.5% DMSO, were added in triplicate at twelve different concentrations. Vehicle controls (media only or media containing 0.5% DMSO) were included. After a 24 h incubation period, cell viability was assessed via the MTT assay.
(§3) Briefly, the media were replaced with 100 µL of fresh RPMI-1640 medium, followed by the addition of 10 µL of a 12 mM MTT stock solution (5 mg/mL in PBS) to each well, including untreated controls. Plates were incubated at 37 °C in a 5% CO2 atmosphere for 4 h. Subsequently, 85 µL of medium was removed from each well, and 50 µL of DMSO was added to dissolve the resulting formazan crystals. The plates were thoroughly mixed and incubated for an additional 10 min at 37 °C. Absorbance was measured at 590 nm using a microplate reader (SunRise, TECAN Inc., Morrisville, NC, USA). Cell viability percentages were calculated, and IC50 values (µM) were determined from dose–response curves using GraphPad Prism 10 software (San Diego, CA, USA) [38].
A word on the IC50: it is the concentration that inhibits the measured activity by half. `CC(C)C1C(O)CC2(C)CC(O)C3(C)CCC12O3` (stereo not drawn) [CM1, 9α-hydroxydaucol]: the IC50 was determined as 401 ± 20.3 µM.
The same measure, in the same setting: to `CC(C)(O)[C@H]1[C@@H](O)C[C@]2(C)C[C@H](O)[C@]3(C)CC[C@]12O3` [CM2, 9α,13-dihydroxydaucol] belongs 213 ± 13.7 µM; to `CC(C)[C@H]1CC[C@]2(C)C[C@H](O)[C@@](C)(O)CC[C@]12O` [CM3], 242 ± 15.7 µM.
Still for that read-out and setting: to `CC1=CC[C@@]2(C)CC[C@H](C(C)C)[C@@]2(O)CC1` [Carotol] belongs 68.4 ± 6.04 µM.
Same read-out and setting: to `COc1cccc2c1C(=O)c1c(O)c3c(c(O)c1C2=O)C[C@@](O)(C(=O)CO)C[C@@H]3O[C@H]1C[C@H](N)[C@H](O)[C@H](C)O1` [Doxorubicin, doxorubicin, reference compound] belongs 3.07 ± 0.18 µM.

The data set is the same for the next values; noted with them: SI = CC50(MRC-5)/IC50(MCF-7).
For the compound `CC(C)C1C(O)CC2(C)CC(O)C3(C)CCC12O3` (stereo not drawn) [CM1, 9α-hydroxydaucol], the “Selectivity index (SI)” value was found to be 1.16.
As to `CC(C)(O)[C@H]1[C@@H](O)C[C@]2(C)C[C@H](O)[C@]3(C)CC[C@]12O3` [CM2, 9α,13-dihydroxydaucol], the “Selectivity index (SI)” value stood at 1.16.
`CC(C)[C@H]1CC[C@]2(C)C[C@H](O)[C@@](C)(O)CC[C@]12O` [CM3]: the “Selectivity index (SI)” value was 1.31.
The same measure, in the same setting: with `CC1=CC[C@@]2(C)CC[C@H](C(C)C)[C@@]2(O)CC1` [Carotol] the figure was 2.57.
The same measure, in the same setting: with `COc1cccc2c1C(=O)c1c(O)c3c(c(O)c1C2=O)C[C@@](O)(C(=O)CO)C[C@@H]3O[C@H]1C[C@H](N)[C@H](O)[C@H](C)O1` [Doxorubicin, doxorubicin, reference compound] the figure was 14.31.

Tested on in the next data set: not listed separately
Kind of data set: Substrate control stability in sterile fermentation medium. Type of data set: physicochemical. The conditions noted are these: 5 °C, two weeks, without microorganisms. The procedure:
Control groups included a substrate control, in which sterile medium containing carotol (5 mg/100 µL DMF) was incubated without microorganisms. […] Culture controls consisted of microorganisms grown under identical conditions to the screening cultures but without carotol. After two weeks of incubation, all cultures were harvested and analyzed by thin-layer chromatography.
For `CC1=CC[C@@]2(C)CC[C@H](C(C)C)[C@@]2(O)CC1` [Carotol], the “Stability of substrate control” value was “remained fully stable”.

The data set is the same for the next values; noted with them: room temperature (25–30 °C), without microorganisms.
Turning to `CC1=CC[C@@]2(C)CC[C@H](C(C)C)[C@@]2(O)CC1` [Carotol], the “Stability of substrate control” value is given as “slight decomposition”.

The subject of another data set is human hypopharyngeal squamous cell carcinoma cells (FaDu).
Experiment: not given
Also on record: method as in doi:10.1016/j.indcrop.2016.08.001. To be noted: cited from earlier work.
Take `CC1=CC[C@@]2(C)CC[C@H](C(C)C)[C@@]2(O)CC1` [Carotol]: the IC50 is 38.3 µg/mL (≈ 172 µM).

Tested on in a further data set: not listed separately
As to the kind of experiment: MTT cell viability assay, MRC-5. To be noted: human, MRC-5 normal lung fibroblasts.
Experimental: as §1, §2, §3
In turn, `COc1cccc2c1C(=O)c1c(O)c3c(c(O)c1C2=O)C[C@@](O)(C(=O)CO)C[C@@H]3O[C@H]1C[C@H](N)[C@H](O)[C@H](C)O1` [Doxorubicin, doxorubicin, reference compound] displayed an IC50 at 24 h of 44 ± 3.24 µM.

Tested on in the next data set: not listed separately
Kind of data set: in vitro. To be noted: human.
Experimental: as §1, §2, §3
`CC(C)C1C(O)CC2(C)CC(O)C3(C)CCC12O3` (stereo not drawn) [CM1, 9α-hydroxydaucol] came in with an IC50 at 24 h of 466 ± 20.3 µM.
Same read-out and setting: to `CC(C)(O)[C@H]1[C@@H](O)C[C@]2(C)C[C@H](O)[C@]3(C)CC[C@]12O3` [CM2, 9α,13-dihydroxydaucol] belongs 248 ± 11.2 µM.
The same measure, in the same setting: to `CC(C)[C@H]1CC[C@]2(C)C[C@H](O)[C@@](C)(O)CC[C@]12O` [CM3] belongs 316 ± 15.2 µM.
Same read-out and setting: to `CC1=CC[C@@]2(C)CC[C@H](C(C)C)[C@@]2(O)CC1` [Carotol] belongs 176 ± 10.9 µM.

The subject of another data set is green monkey kidney epithelial cells (VERO).
Experiment: not given
More on the design: method as in doi:10.1016/j.indcrop.2016.08.001. The conditions noted are these: cited from earlier work.
For `CC1=CC[C@@]2(C)CC[C@H](C(C)C)[C@@]2(O)CC1` [Carotol], the IC50 was 39.7 µg/mL (≈ 179 µM).

The subject of the next data set is A-549 (lung carcinoma). As to the kind of experiment: MTT cell viability assay, A-549. The conditions noted are these: Homo sapiens, A549, 24 h, read-out: Cytotoxic activity IC50 ± SD.
Experimental: as §1, §2, §3
For `CC(C)C1C(O)CC2(C)CC(O)C3(C)CCC12O3` (stereo not drawn) [CM1, 9α-hydroxydaucol], the IC50 came out at 225 ± 13.4 µM.
The same measure, in the same setting: with `CC(C)(O)[C@H]1[C@@H](O)C[C@]2(C)C[C@H](O)[C@]3(C)CC[C@]12O3` [CM2, 9α,13-dihydroxydaucol] the figure was 138 ± 9.2 µM; with `CC(C)[C@H]1CC[C@]2(C)C[C@H](O)[C@@](C)(O)CC[C@]12O` [CM3], 205 ± 10.6 µM; with `CC1=CC[C@@]2(C)CC[C@H](C(C)C)[C@@]2(O)CC1` [Carotol], 28.7 ± 2.75 µM.
On the same count and under the same terms, with `COc1cccc2c1C(=O)c1c(O)c3c(c(O)c1C2=O)C[C@@](O)(C(=O)CO)C[C@@H]3O[C@H]1C[C@H](N)[C@H](O)[C@H](C)O1` [Doxorubicin, doxorubicin, reference compound] the figure was 3.31 ± 0.26 µM.

Still in this data set, the particulars now being: SI = CC50(MRC-5)/IC50(A-549).
Regarding `CC(C)C1C(O)CC2(C)CC(O)C3(C)CCC12O3` (stereo not drawn) [CM1, 9α-hydroxydaucol], the “Selectivity index (SI)” value was 2.07.
The same measure, in the same setting: with `CC(C)(O)[C@H]1[C@@H](O)C[C@]2(C)C[C@H](O)[C@]3(C)CC[C@]12O3` [CM2, 9α,13-dihydroxydaucol] the figure was 1.79; with `CC(C)[C@H]1CC[C@]2(C)C[C@H](O)[C@@](C)(O)CC[C@]12O` [CM3], 1.54; with `CC1=CC[C@@]2(C)CC[C@H](C(C)C)[C@@]2(O)CC1` [Carotol], 6.14.

A further data set relates to HCT-116 (colon carcinoma). Kind of data set: MTT cell viability assay, HCT-116. To be noted: Homo sapiens, HCT-116, 24 h, read-out: Cytotoxic activity IC50 ± SD.
Experimental: as §1, §2, §3
Regarding `CC(C)C1C(O)CC2(C)CC(O)C3(C)CCC12O3` (stereo not drawn) [CM1, 9α-hydroxydaucol], the IC50 turned out to be 339 ± 15.6 µM.
On the same count and under the same terms, to `CC(C)(O)[C@H]1[C@@H](O)C[C@]2(C)C[C@H](O)[C@]3(C)CC[C@]12O3` [CM2, 9α,13-dihydroxydaucol] belongs 181 ± 9.95 µM; to `CC(C)[C@H]1CC[C@]2(C)C[C@H](O)[C@@](C)(O)CC[C@]12O` [CM3], 226 ± 11 µM.
Same read-out and setting: to `CC1=CC[C@@]2(C)CC[C@H](C(C)C)[C@@]2(O)CC1` [Carotol] belongs 25.7 ± 0.53 µM; to `COc1cccc2c1C(=O)c1c(O)c3c(c(O)c1C2=O)C[C@@](O)(C(=O)CO)C[C@@H]3O[C@H]1C[C@H](N)[C@H](O)[C@H](C)O1` [Doxorubicin, doxorubicin, reference compound], 2.99 ± 0.22 µM.

The same data set, now with this note: SI = CC50(MRC-5)/IC50(HCT-116).
Regarding `CC(C)C1C(O)CC2(C)CC(O)C3(C)CCC12O3` (stereo not drawn) [CM1, 9α-hydroxydaucol], the “Selectivity index (SI)” value is given as 1.37.
Still for that read-out and setting: with `CC(C)(O)[C@H]1[C@@H](O)C[C@]2(C)C[C@H](O)[C@]3(C)CC[C@]12O3` [CM2, 9α,13-dihydroxydaucol] the figure was 1.37; with `CC(C)[C@H]1CC[C@]2(C)C[C@H](O)[C@@](C)(O)CC[C@]12O` [CM3], 1.40.
As to `CC1=CC[C@@]2(C)CC[C@H](C(C)C)[C@@]2(O)CC1` [Carotol], the “Selectivity index (SI)” value was 6.85.
On the same count and under the same terms, with `COc1cccc2c1C(=O)c1c(O)c3c(c(O)c1C2=O)C[C@@](O)(C(=O)CO)C[C@@H]3O[C@H]1C[C@H](N)[C@H](O)[C@H](C)O1` [Doxorubicin, doxorubicin, reference compound] the figure was 14.66.

In a further data set the test system is HepG-2 (hepatocellular carcinoma). Kind of data set: MTT cell viability assay, HepG-2. To be noted: Homo sapiens, HepG2, 24 h, read-out: Cytotoxic activity IC50 ± SD.
Experimental: as §1, §2, §3
Consider `CC(C)C1C(O)CC2(C)CC(O)C3(C)CCC12O3` (stereo not drawn) [CM1, 9α-hydroxydaucol], for which the IC50 was 221 ± 12.3 µM.
Consider `CC(C)(O)[C@H]1[C@@H](O)C[C@]2(C)C[C@H](O)[C@]3(C)CC[C@]12O3` [CM2, 9α,13-dihydroxydaucol], for which the IC50 was 154 ± 9.39 µM.
Still for that read-out and setting: to `CC(C)[C@H]1CC[C@]2(C)C[C@H](O)[C@@](C)(O)CC[C@]12O` [CM3] belongs 196 ± 10.6 µM; to `CC1=CC[C@@]2(C)CC[C@H](C(C)C)[C@@]2(O)CC1` [Carotol], 52.3 ± 4.23 µM.
As for `COc1cccc2c1C(=O)c1c(O)c3c(c(O)c1C2=O)C[C@@](O)(C(=O)CO)C[C@@H]3O[C@H]1C[C@H](N)[C@H](O)[C@H](C)O1` [Doxorubicin, doxorubicin, reference compound], the IC50 is 1.27 ± 0.2 µM.

Staying with this data set, now noted: SI = CC50(MRC-5)/IC50(HepG-2).
On to `CC(C)C1C(O)CC2(C)CC(O)C3(C)CCC12O3` (stereo not drawn) [CM1, 9α-hydroxydaucol], for which the “Selectivity index (SI)” value came to 2.11.
For the compound `CC(C)(O)[C@H]1[C@@H](O)C[C@]2(C)C[C@H](O)[C@]3(C)CC[C@]12O3` [CM2, 9α,13-dihydroxydaucol], the “Selectivity index (SI)” value is given as 1.60.
In the case of `CC(C)[C@H]1CC[C@]2(C)C[C@H](O)[C@@](C)(O)CC[C@]12O` [CM3], the “Selectivity index (SI)” value stood at 1.62.
The same measure, in the same setting: to `CC1=CC[C@@]2(C)CC[C@H](C(C)C)[C@@]2(O)CC1` [Carotol] belongs 3.36.
Still for that read-out and setting: with `COc1cccc2c1C(=O)c1c(O)c3c(c(O)c1C2=O)C[C@@](O)(C(=O)CO)C[C@@H]3O[C@H]1C[C@H](N)[C@H](O)[C@H](C)O1` [Doxorubicin, doxorubicin, reference compound] the figure was 34.62.
